Biological target: T1, RORc (Homo sapiens, UniProt P51449)
T1 sequence (P51449 269-508 limits assumed): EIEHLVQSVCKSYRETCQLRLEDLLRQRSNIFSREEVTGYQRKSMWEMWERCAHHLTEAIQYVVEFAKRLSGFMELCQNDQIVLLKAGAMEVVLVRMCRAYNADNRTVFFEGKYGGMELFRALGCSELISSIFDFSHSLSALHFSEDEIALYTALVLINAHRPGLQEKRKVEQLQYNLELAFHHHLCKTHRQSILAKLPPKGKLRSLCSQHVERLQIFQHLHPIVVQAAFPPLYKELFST
Experiment: In vitro RORc ligand binding assay (25-[3H]hydroxycholesterol displacement)
Conditions: IC50, IC50 values for RORc; unit inferred

IC50 | Structure (SMILES)
2.6 nM | C[C@H]1CC[C@H](c2ccccc2)S(=O)(=O)N1Cc1cc(F)c(C2(OCC(N)=O)COC2)cc1F [Compound 138, 2-[3-[2,5-difluoro-4-[[(3S,6R)-3-methyl-1,1-dioxo-6-phenyl-thiazinan-2-yl]methyl]phenyl]oxetan-3-yl]oxyacetamide]
45.7 nM | CCOC(=O)CCC1(c2cc(F)c(CN3[C@@H](C)CC[C@H](c4ccccc4)S3(=O)=O)cc2F)CC1 [Compound 140, ethyl 3-[1-[2,5-difluoro-4-[[(3S,6R)-3-methyl-1,1-dioxo-6-phenyl-thiazinan-2-yl]methyl]phenyl]cyclopropyl]propanoate]
5.7 nM | CNC(=O)COC1(c2cc(F)c(CN3[C@@H](C)CC[C@H](c4ccccc4)S3(=O)=O)cc2F)CCOCC1 [Compound 154, 2-[4-[2,5-difluoro-4-[[(3S,6R)-3-methyl-1,1-dioxo-6-phenyl-thiazinan-2-yl]methyl]phenyl]tetrahydropyran-4-yl]oxy-N-methyl-acetamide]
17.2 nM | CC(=O)N1CC(OCC(=O)O)(c2cc(F)c(CN3[C@@H](C)CC[C@H](c4ccccc4)S3(=O)=O)cc2F)C1 [Compound 136, 2-[1-acetyl-3-[2,5-difluoro-4-[[(3S,6R)-3-methyl-1,1-dioxo-6-phenyl-thiazinan-2-yl]methyl]phenyl]azetidin-3-yl]oxyacetic acid]
8.07 nM | C[C@H]1CC[C@H](c2ccccc2)S(=O)(=O)N1Cc1cc(F)c(C2(C(N)=O)CC(=O)C2)cc1F [Compound 193, 1-[2,5-difluoro-4-[[(3S,6R)-3-methyl-1,1-dioxo-6-phenyl-thiazinan-2-yl]methyl]phenyl]-3-oxo-cyclobutanecarboxamide]
31 nM | C[C@H]1CC[C@H](c2ccccc2)S(=O)(=O)N1Cc1cc(F)c(C2(C(=O)NCC#N)CCOCC2)cc1F [Compound 100, N-(cyanomethyl)-4[2,5-difluoro-4-[[(3S,6R)-3-methyl-1,1-dioxo-6-phenyl-thiazinan-2-yl]methyl]phenyl]tetrahydropyran-4-carboxamide]
3.05 nM | C[C@H]1CC[C@H](c2ccccc2)S(=O)(=O)N1Cc1cc(F)c(C2(C(N)=O)CC(F)(F)C2)cc1F [Compound 194, 1-[2,5-difluoro-4-[[(3S,6R)-3-methyl-1,1-dioxo-6-phenyl-thiazinan-2-yl]methyl]phenyl]-3,3-difluoro-cyclobutanecarboxamide]
26 nM | CC(=O)N1CCC(OCC(N)=O)(c2cc(F)c(CN3[C@@H](C)CC[C@H](c4ccccc4)S3(=O)=O)cc2F)CC1 [Compound 141, 2-[[1-acetyl-4-[2,5-difluoro-4-[[(3S,6R)-3-methyl-1,1-dioxo-6-phenyl-thiazinan-2-yl]methyl]phenyl]-4-piperidyl]oxy]acetamide]
13 nM | COC(=O)C1(c2ccc(CN3[C@@H](C)CC[C@H](c4ccccc4)S3(=O)=O)c(F)c2)CCN(C(C)=O)CC1 [Compound 124, methyl 1-acetyl-4-[3-fluoro-4-[[(3S,6R)-3-methyl-1,1-dioxo-6-phenyl-thiazinan-2-yl]methyl]phenyl]piperidine-4-carboxylate]
20.6 nM | C[C@H]1CC[C@H](c2ccccc2)S(=O)(=O)N1Cc1cc(F)c(C2(OCC(O)CO)COC2)cc1F (stereo partly drawn) [Compound 142, 3-[3-[2,5-difluoro-4-[[(3S,6R)-3-methyl-1,1-dioxo-6-phenyl-thiazinan-2-yl]methyl]phenyl]oxetan-3-yl]oxypropane-1,2-diol]

More lines, now with the values behind:

Structure (SMILES) | IC50
C[C@H]1CC[C@H](c2ccccc2)S(=O)(=O)N1Cc1ccc(C2(CCC(=O)O)CCOCC2)cc1F [Compound 84, 3-[4-[3-fluoro-4-[[(3S,6R)-3-methyl-1,1-dioxo-6-phenyl-thiazinan-2-yl]methyl]phenyl]tetrahydropyran-4-yl]propanoic acid] | 49.2 nM
C[C@H]1CC[C@H](c2ccccc2)S(=O)(=O)N1Cc1ccc(OCC2(F)CCOCC2)cc1F [Example 5, (3S,6R)-2-[2-Fluoro-4-(4-fluoro-tetrahydro-pyran-4-ylmethoxy)-benzyl]-3-methyl-6-phenyl-[1,2]thiazinane 1,1-dioxide] | 160 nM
C[C@H]1CC[C@H](c2ccccc2)S(=O)(=O)N1Cc1ccc(C2(O)CCOCC2)cc1F [Compound 69, 4-[3-fluoro-4-[[(3S,6R)-3-methyl-1,1-dioxo-6-phenyl-thiazinan-2-yl]methyl]phenyl]tetrahydropyran-4-ol] | 93 nM
C[C@H]1CC[C@H](c2ccccc2)S(=O)(=O)N1Cc1ccc(C2(OC[C@@H](O)CO)CCOCC2)cc1F [Compound 119, (2S)-3-[4-[3-fluoro-4-[[(3S,6R)-3-methyl-1,1-dioxo-6-phenyl-thiazinan-2-yl]methyl]phenyl]tetrahydropyran-4-yl]oxypropane-1,2-diol] | 27.4 nM
C[C@H]1CC[C@H](c2ccccc2)S(=O)(=O)N1Cc1ccc(C2(CO)CCOCC2)cc1 [Compound 32, {4-[4-((3S,6R)-3-Methyl-1,1-dioxo-6-phenyl-[1,2]thiazinan-2-ylmethyl)-phenyl]-tetrahydro-pyran-4-yl}-methanol] | 310 nM
C[C@H]1CC[C@H](c2ccccc2)S(=O)(=O)N1Cc1ccc(C2(NC(=O)CO)CCOCC2)cc1F [Compound 95, N-[4-[3-fluoro-4-[[(3S,6R)-3-methyl-1,1-dioxo-6-phenyl-thiazinan-2-yl]methyl]phenyl]tetrahydropyran-4-yl]-2-hydroxy-acetamide] | 122 nM
C[C@@H](NC1(c2ccc(CN3[C@@H](C)CC[C@H](c4ccccc4)S3(=O)=O)c(F)c2)CCOCC1)C(N)=O [Compound 180, (2R)-2-[[4-[3-fluoro-4-[[(3S,6R)-3-methyl-1,1-dioxo-6-phenyl-thiazinan-2-yl]methyl]phenyl]tetrahydropyran-4-yl]amino]propanamide] | 6.7 nM
C[C@H]1CC[C@H](c2ccccc2)S(=O)(=O)N1Cc1ccc(C2(C(=O)NCCO)CCOCC2)cc1F [Compound 48, 4-(3-fluoro-4-(((3S,6R)-3-methyl-1,1-dioxido-6-phenyl-1,2-thiazinan-2-yl)methyl)phenyl)-N-(2-hydroxyethyl)tetrahydro-2H-pyran-4-carboxamide] | 337 nM
CNC(=O)C1(c2ccc(CN3[C@@H](C)CCC(c4ccccc4)S3(=O)=O)cc2)CCOCC1 (stereo partly drawn) [Compound 40, 4-[4-((S)-3-Methyl-1,1-dioxo-6-phenyl-[1,2]thiazinan-2-ylmethyl)-phenyl]-tetrahydro-pyran-4-carboxylic acid methylamide] | 570 nM
C[C@H]1CC[C@H](c2ccccc2)S(=O)(=O)N1Cc1cc(F)c(C2(CO)CCC(n3cnnc3)CC2)cc1F (stereo partly drawn) [Compound 134, [1-[2,5-difluoro-4-[[(3S,6R)-3-methyl-1,1-dioxo-6-phenyl-thiazinan-2-yl]methyl]phenyl]-4-(1,2,4-triazol-4-yl)cyclohexyl]methanol] | 87.9 nM
C[C@H]1CC[C@H](c2ccccc2)S(=O)(=O)N1Cc1ccc(C2(C#N)CCOCC2)cc1F [Compound 61, 4-[3-fluoro-4-[[(3S,6R)-3-methyl-1,1-dioxo-6-phenyl-thiazinan-2-yl]methyl]phenyl]tetrahydropyran-4-carbonitrile] | 186 nM
C[C@H]1CC[C@H](c2ccccc2)S(=O)(=O)N1Cc1ccc(C2(OCC(=O)O)CCOCC2)cc1F [Compound 110, 2-[4-[3-fluoro-4-[[(3S,6R)-3-methyl-1,1-dioxo-6-phenyl-thiazinan-2-yl]methyl]phenyl]tetrahydropyran-4-yl]oxyacetic acid] | 62.9 nM
C[C@H]1CC[C@H](c2ccccc2)S(=O)(=O)N1Cc1ccc(C2(CNC(=O)OC(C)(C)C)CCOCC2)cc1F [Compound 74, tert-butyl N-[[4-[3-fluoro-4-[[(3S,6R)-3-methyl-1,1-dioxo-6-phenyl-thiazinan-2-yl]methyl]phenyl]tetrahydropyran-4-yl]methyl]carbamate] | 141 nM
C[C@H]1CC[C@H](c2ccccc2)S(=O)(=O)N1Cc1ccc(C2(/C=C/C#N)CCOCC2)cc1F [Compound 72, (E)-3-[4-[3-fluoro-4-[[(3S,6R)-3-methyl-1,1-dioxo-6-phenyl-thiazinan-2-yl]methyl]phenyl]tetrahydropyran-4-yl]prop-2-enenitrile] | 8.7 nM
C[C@H]1CC[C@H](c2ccccc2)S(=O)(=O)N1Cc1ccc(C2(CC#N)CCOCC2)cc1F [Compound 77, 2-[4-[3-fluoro-4-[[(3S,6R)-3-methyl-1,1-dioxo-6-phenyl-thiazinan-2-yl]methyl]phenyl]tetrahydropyran-4-yl]acetonitrile] | 31.2 nM
C[C@H]1CC[C@H](c2ccccc2)S(=O)(=O)N1Cc1ccc(C2(NCCO)CCOCC2)cc1F [Compound 106, 2-[[4-[3-fluoro-4-[[(3S,6R)-3-methyl-1,1-dioxo-6-phenyl-thiazinan-2-yl]methyl]phenyl]tetrahydropyran-4-yl]amino]ethanol] | 137 nM
C[C@H]1CC[C@@H](c2ccccc2)S(=O)(=O)N1Cc1ccc(C2(C(=O)NCCO)CCOCC2)cc1F [Compound 47, 4-(3-fluoro-4-(((3S,6S)-3-methyl-1,1-dioxido-6-phenyl-1,2-thiazinan-2-yl)methyl)phenyl)-N-(2-hydroxyethyl)tetrahydro-2H-pyran-4-carboxamide] | 991 nM
C[C@H]1CC[C@H](c2ccccc2)S(=O)(=O)N1Cc1ccc([C@]2(CO)CC[C@H](n3cnnc3)CC2)cc1 [Example 14, {1-[4-((3S,6R)-3-Methyl-1,1-dioxo-6-phenyl-[1,2]thiazinan-2-ylmethyl)-phenyl]-4-[1,2,4]triazol-4-yl-cyclohexyl}-methanol] | 1800 nM
CC(=O)N1CCC(F)(c2ccc(CN3[C@@H](C)CC[C@H](c4ccccc4)S3(=O)=O)cc2)CC1 [Example 8, 1-{4-Fluoro-4-[4-((3S,6R)-3-methyl-1,1-dioxo-6-phenyl-[1,2]thiazinan-2-ylmethyl)-phenyl]-piperidin-1-yl}-ethanone] | 200 nM

Reference: US10131644B2, “Aryl sultam derivatives as RORc modulators” (Genentech, Inc., priority 2014, dated 2018)
